{"source": "ChEMBL document CHEMBL4330186", "about": "“An Isoquinoline Scaffold as a Novel Class of Allosteric HIV-1 Integrase Inhibitors” (ACS Med Chem Lett, 2019)", "key": {"[1]": {"target": "T1, Human immunodeficiency virus type 1 integrase (Human immunodeficiency virus 1, UniProt Q7ZJM1)", "T1 sequence (Q7ZJM1 whole entry)": "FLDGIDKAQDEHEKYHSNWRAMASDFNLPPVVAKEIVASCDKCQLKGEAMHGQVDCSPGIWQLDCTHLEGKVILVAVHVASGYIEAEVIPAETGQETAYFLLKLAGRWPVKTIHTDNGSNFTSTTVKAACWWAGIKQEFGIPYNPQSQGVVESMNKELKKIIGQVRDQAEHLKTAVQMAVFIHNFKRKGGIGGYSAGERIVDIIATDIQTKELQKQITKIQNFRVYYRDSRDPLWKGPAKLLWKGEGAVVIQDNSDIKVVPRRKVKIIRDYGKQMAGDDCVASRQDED", "test": "Inhibition of LEDGF/p75-independant HIV1 His/FLAG-tagged integrase expressed in Escherichia coli BL21(DE3) by HTRF assay"}, "[2]": {"target": "T1, Human immunodeficiency virus type 1 integrase", "test": "Induction of HIV1 His/FLAG-tagged integrase hyper-multimerization expressed in Escherichia coli BL21(DE3) by HTRF assay"}, "[3]": {"target": "T1, Human immunodeficiency virus type 1 integrase", "test": "Inhibition of LEDGF/p75 binding to HIV1 His/FLAG-tagged integrase expressed in Escherichia coli BL21(DE3) by HTRF assay"}, "[4]": {"target": "T1, Human immunodeficiency virus type 1 integrase", "test": "Inhibition of biotinylated-TAR-RNA binding to HIV1 His6-tagged integrase expressed in Escherichia coli BL21(DE3) preincubated for 2 hrs followed by RNA addition and measured after 2 hrs by Alpha screen assay"}, "[5]": {"test_system": "Human immunodeficiency virus 1", "test": "Antiviral activity against HIV-1 NL4-3 harboring integrase A128T mutant infected in human HeLa TZM-bl cells after 48 hrs by p24 ELISA", "type": "functional, organism-based", "conditions": "Human immunodeficiency virus 1, NL4-3, 48 h"}, "[6]": {"target": "T1, Human immunodeficiency virus type 1 integrase", "test": "Inhibition of LEDGF/p75-dependant HIV1 His/FLAG-tagged integrase expressed in Escherichia coli BL21(DE3) by HTRF assay"}, "[7]": {"test_system": "Human immunodeficiency virus 1", "test": "Antiviral activity against HIV-1 NL4-3 harboring wild-type integrase infected in human HeLa TZM-bl cells after 48 hrs by p24 ELISA", "type": "functional, organism-based", "conditions": "Human immunodeficiency virus 1, NL4-3, 48 h"}, "[8]": {"test": "Drug metabolism in DMSO d6 at 100 degC for 3 days by 1H NMR analysis"}, "[9]": {"test": "Stability of the compound at 60 degC for 17 hrs by 1H NMR analysis", "type": "physicochemical"}, "[10]": {"test": "Drug metabolism assessed as 1-([1,1'-biphenyl]-4-yl)-3-(chroman-6-yl)isoquinoline-4-carbaldehyde formation at 100 degC for 17 days by 1H NMR analysis"}, "[11]": {"test": "Drug metabolism assessed as 1-([1,1'-biphenyl]-4-yl)-3-(chroman-6-yl)isoquinoline-4-carbaldehyde formation at 100 degC for 17 days by HSQC NMR analysis"}, "[12]": {"test": "Drug level treated with 2-(1-(biphenyl-4-yl)-3-(chroman-6-yl)isoquinolin-4-yl)-2-tert-butoxyacetic acid at 100 degC for 17 days by HSQC NMR analysis", "type": "physicochemical", "conditions": "408 h"}, "[13]": {"test": "Drug level treated with 2-(1-(biphenyl-4-yl)-3-(chroman-6-yl)isoquinolin-4-yl)-2-tert-butoxyacetic acid at 100 degC for 17 days by 1H NMR analysis", "type": "physicochemical", "conditions": "408 h"}}, "data": [{"smiles": "CC(C)(C)OC(C(=O)O)c1c(-c2ccc3c(c2)CCCO3)nc(-c2ccc(C(F)(F)F)cc2)c2ccccc12", "note": "(stereo not given)", "values": [{"measurement": "IC50", "setting": "[1]", "value": 7640, "unit": "nM"}]}, {"smiles": "CC(C)(C)OC(C(=O)O)c1c(-c2ccc3c(c2)CCCO3)nc(-c2cnn(Cc3ccccc3)c2)c2ccccc12", "note": "(stereo not given)", "values": [{"measurement": "EC50", "setting": "[2]", "value": "< 1790", "unit": "nM"}, {"measurement": "IC50", "setting": "[3]", "value": 36.7, "unit": "µM"}, {"measurement": "IC50", "setting": "[4]", "value": 210, "unit": "nM"}, {"measurement": "IC50", "setting": "[1]", "value": 480, "unit": "nM"}, {"measurement": "EC50", "setting": "[5]", "value": 0.73, "unit": "µM"}, {"measurement": "IC50", "setting": "[6]", "value": 23.4, "unit": "µM"}, {"measurement": "EC50", "setting": "[7]", "value": 1100, "unit": "nM"}]}, {"smiles": "CC(C)(C)OC(C(=O)O)c1c(-c2ccccc2)nc(-c2ccccc2)c2ccccc12", "note": "(stereo not given)", "values": [{"measurement": "IC50", "setting": "[1]", "value": 10100, "unit": "nM"}]}, {"smiles": "Cc1nc2ccc(Br)cc2c(-c2ccc(Cl)cc2)c1C(OC(C)(C)C)C(=O)O", "note": "(stereo not given)", "values": [{"measurement": "EC50", "setting": "[2]", "value": 146, "unit": "nM"}, {"measurement": "IC50", "setting": "[3]", "value": 0.15, "unit": "µM"}, {"measurement": "IC50", "setting": "[4]", "value": 136, "unit": "nM"}, {"measurement": "IC50", "setting": "[1]", "value": 120, "unit": "nM"}, {"measurement": "EC50", "setting": "[5]", "value": 12.2, "unit": "µM"}, {"measurement": "IC50", "setting": "[6]", "value": 0.15, "unit": "µM"}, {"measurement": "EC50", "setting": "[7]", "value": 630, "unit": "nM"}]}, {"smiles": "CC(C)(C)OC(C(=O)O)c1c(-c2ccc3c(c2)CCCO3)nc(-c2ccc3c(c2)CCCO3)c2ccccc12", "note": "(stereo not given)", "values": [{"measurement": "IC50", "setting": "[1]", "value": 1220, "unit": "nM"}]}, {"smiles": "COc1cccc(-c2nc(-c3ccc4c(c3)CCCO4)c(C(OC(C)(C)C)C(=O)O)c3ccccc23)c1", "note": "(stereo not given)", "values": [{"measurement": "IC50", "setting": "[1]", "value": 1140, "unit": "nM"}, {"measurement": "Drug metabolism", "setting": "[8]", "value": "Metabolite detected"}, {"measurement": "Stability", "setting": "[9]", "value": "Stable"}]}, {"smiles": "COc1ccc(-c2nc(-c3ccc4c(c3)CCCO4)c(C(OC(C)(C)C)C(=O)O)c3ccccc23)cc1", "note": "(stereo not given)", "values": [{"measurement": "IC50", "setting": "[1]", "value": 1000, "unit": "nM"}]}, {"smiles": "CC(C)(C)OC(C(=O)O)c1c(-c2ccc3c(c2)CCCO3)nc(-c2cccc(C(=O)O)c2)c2ccccc12", "note": "(stereo not given)", "values": [{"measurement": "IC50", "setting": "[1]", "value": 12300, "unit": "nM"}]}, {"smiles": "CC(C)(C)OC(C(=O)O)c1c(-c2ccc3c(c2)CCCO3)nc(-c2cccc(F)c2)c2ccccc12", "note": "(stereo not given)", "values": [{"measurement": "IC50", "setting": "[1]", "value": 12900, "unit": "nM"}, {"measurement": "Drug metabolism", "setting": "[8]", "value": "Metabolite detected"}, {"measurement": "Stability", "setting": "[9]", "value": "Stable"}]}, {"smiles": "CC(C)(C)OC(C(=O)O)c1c(-c2ccc3c(c2)CCCO3)nc(-c2ccccc2)c2ccccc12", "note": "(stereo not given)", "values": [{"measurement": "IC50", "setting": "[1]", "value": 4650, "unit": "nM"}]}, {"smiles": "CC(C)(C)OC(C(=O)O)c1c(-c2ccc3c(c2)CCCO3)nc(-c2ccc(-c3ccccc3)cc2)c2ccccc12", "note": "(stereo not given)", "values": [{"measurement": "Drug metabolism", "setting": "[10]", "value": "Metabolite detected"}, {"measurement": "IC50", "setting": "[1]", "value": 830, "unit": "nM"}, {"measurement": "Drug metabolism", "setting": "[11]", "value": "Metabolite detected"}, {"measurement": "Stability", "setting": "[9]", "value": "Stable"}]}, {"smiles": "O=Cc1c(-c2ccc3c(c2)CCCO3)nc(-c2ccc(-c3ccccc3)cc2)c2ccccc12", "values": [{"measurement": "Drug metabolism", "setting": "[12]", "value": "Metabolite_Detected"}, {"measurement": "Drug metabolism", "setting": "[13]", "value": "Metabolite_Detected"}]}, {"smiles": "CC(C)(C)OC(C(=O)O)c1c(-c2ccc3c(c2)CCCO3)nc(-c2ccco2)c2ccccc12", "note": "(stereo not given)", "values": [{"measurement": "IC50", "setting": "[1]", "value": 3550, "unit": "nM"}]}, {"smiles": "CC(C)(C)OC(C(=O)O)c1c(-c2ccc3c(c2)CCCO3)nc(-c2nc3cc(Cl)ccc3[nH]2)c2ccccc12", "note": "(stereo not given)", "values": [{"measurement": "IC50", "setting": "[1]", "value": 810, "unit": "nM"}]}, {"smiles": "COc1cccc(-c2nc(-c3ccccc3)c(C(OC(C)(C)C)C(=O)O)c3ccccc23)c1", "note": "(stereo not given)", "values": [{"measurement": "IC50", "setting": "[1]", "value": 13800, "unit": "nM"}]}]}
